Values quoted from earlier work, collected in Sander's compilation of Henry's law constants (doi:10.1007/978-1-4612-3850-8_1).
“And” between values parts separate entries of the source, which are not always exact repeats. Identical values can stand only once.

Test: Henry solubility constant Hcp at 298.15 K (mol/(m3 Pa))
Conditions: reference: Suntio et al. (1988); cited value

Compound	Henry solubility constant Hcp
ClC(Cl)=C(c1ccc(Cl)cc1)c1ccc(Cl)cc1 [1,1-dichloro-2,2-bis-(4-chlorophenyl)-ethene]	0.45
ClC1=C(Cl)[C@]2(Cl)[C@@H]3[C@H]4C[C@H]([C@@H]5O[C@H]45)[C@@H]3[C@@]1(Cl)C2(Cl)Cl [endrin]	5600
ClC1=C(Cl)[C@]2(Cl)C3C(Cl)C(Cl)CC3[C@@]1(Cl)C2(Cl)Cl (some centres undefined) [chlordane]	0.2 and 0.11
Clc1ccc(C(c2ccc(Cl)cc2)C(Cl)(Cl)Cl)cc1 [1,1,1-trichloro-2,2-bis-(4-chlorophenyl)-ethane]	0.17
ClC1C(Cl)C(Cl)C(Cl)C(Cl)C1Cl (stereo not drawn) [α-1,2,3,4,5,6-hexachlorocyclohexane]	1.8
ClC1C(Cl)C(Cl)C(Cl)C(Cl)C1Cl (stereo not drawn) [β-1,2,3,4,5,6-hexachlorocyclohexane]	56
Clc1ccc(C(c2ccccc2Cl)C(Cl)Cl)cc1 (centres undefined) [mitotane]	560

Test: Henry solubility constant Hcp at 293 K (mol/(m3 Pa))
Conditions: reference: Suntio et al. (1988); cited value

Compound	Henry solubility constant Hcp at 293 K
ClC1C(Cl)C(Cl)C(Cl)C(Cl)C1Cl (centres undefined) [γ-1,2,3,4,5,6-hexachlorocyclohexane]	20
ClC1(Cl)C2(Cl)C3(Cl)C4(Cl)C(Cl)(Cl)C5(Cl)C3(Cl)C1(Cl)C5(Cl)C24Cl (centres undefined) [mirex]	0.00099
ClC1=C(Cl)[C@]2(Cl)[C@@H]3[C@@H]4C[C@@H]([C@H]5O[C@@H]45)[C@@H]3[C@@]1(Cl)C2(Cl)Cl [dieldrin]	50
CNC(=O)O/N=C/C(C)(C)SC [aldicarb]	1.9
CC1=CC(=O)CC(C)(C)C1 [3,5,5-trimethyl-2-cyclohexen-1-one]	1.8
ClC(Cl)=C(c1ccc(Cl)cc1)c1ccccc1Cl [o,p'-DDE]	0.14
C=CC=O [propenal]	0.18
